Test results published in patent publication US20240208928A1, “NOVEL COMPOUNDS” (Hoffmann-La Roche Inc., priority 2021, published 2024).
pIC50: −log10 of the molar value.

Key:
Format in all cases: cell-based
hERG channels = target: T1, hERG channels (Homo sapiens, UniProt Q12809); experiment: hERG screening assay (automated patch clamp); conditions: CHO crelox hERG cell line, whole-cell patch clamp SynchroPatch 384, 35-37° C.
T1 construct: cryopreserved at Evotec (Germany) ATCC PTA-6812; host or cells: CHO (Chinese hamster) crelox hERG cell line
T1 sequence (Q12809 whole entry): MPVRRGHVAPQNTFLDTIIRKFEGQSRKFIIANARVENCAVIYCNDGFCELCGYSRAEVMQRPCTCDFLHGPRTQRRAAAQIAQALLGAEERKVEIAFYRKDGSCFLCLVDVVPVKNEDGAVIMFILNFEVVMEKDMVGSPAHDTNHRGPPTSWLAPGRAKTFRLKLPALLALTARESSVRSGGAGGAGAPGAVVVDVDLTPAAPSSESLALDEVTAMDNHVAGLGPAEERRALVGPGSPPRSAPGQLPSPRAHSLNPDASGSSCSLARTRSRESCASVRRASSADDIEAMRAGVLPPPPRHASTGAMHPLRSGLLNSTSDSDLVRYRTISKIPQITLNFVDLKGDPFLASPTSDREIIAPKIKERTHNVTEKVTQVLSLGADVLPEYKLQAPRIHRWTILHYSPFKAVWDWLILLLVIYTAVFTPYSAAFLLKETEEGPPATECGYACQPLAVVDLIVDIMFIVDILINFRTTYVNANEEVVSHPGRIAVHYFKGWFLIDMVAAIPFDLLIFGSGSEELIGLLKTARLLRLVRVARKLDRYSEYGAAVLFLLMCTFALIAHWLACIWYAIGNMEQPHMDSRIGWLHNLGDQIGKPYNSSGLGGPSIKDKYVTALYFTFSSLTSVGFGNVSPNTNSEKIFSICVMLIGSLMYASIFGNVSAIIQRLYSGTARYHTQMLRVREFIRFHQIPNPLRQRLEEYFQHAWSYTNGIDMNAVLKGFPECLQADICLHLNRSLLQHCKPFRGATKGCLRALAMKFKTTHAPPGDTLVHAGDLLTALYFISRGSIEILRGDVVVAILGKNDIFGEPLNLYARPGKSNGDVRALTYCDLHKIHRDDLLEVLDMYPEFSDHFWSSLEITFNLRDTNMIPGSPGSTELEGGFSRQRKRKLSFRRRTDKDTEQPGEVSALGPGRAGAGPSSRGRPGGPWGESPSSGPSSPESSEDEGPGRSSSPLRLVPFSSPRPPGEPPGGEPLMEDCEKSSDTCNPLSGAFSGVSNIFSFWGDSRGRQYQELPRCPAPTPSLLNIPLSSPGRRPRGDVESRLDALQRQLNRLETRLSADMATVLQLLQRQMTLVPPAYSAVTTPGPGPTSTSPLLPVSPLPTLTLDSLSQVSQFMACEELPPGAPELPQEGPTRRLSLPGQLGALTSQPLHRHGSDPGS
Description: hERG Screening Assay The CHO crelox hERG cell line (ATCC reference Nr. PTA-6812, female Chinese hamster cells) was generated and validated at Roche. Ready-to-use frozen instant CHO-hERG cells were cryopreserved at Evotec (Germany) and used directly in the experiments. The extracellular solution contains (in mM): NaCl 150; KCl 4; CaCl2 1; MgCl2 1; HEPES 10; pH 7.2-7.4 with NaOH, osmolarity 290-330 mOsm. The internal solution contains (in mM): KCl, 10; KF, 100; NaCl, 10; HEPES, 10; EGTA, 20; pH=7.0-7.4 with KOH, osmolarity 260-300 mOsm. The effects of a compound on hERG K+-currents parameters will be evaluated at 2 concentrations in at least 4 cells. The hERG test is performed using automated patch clamp system SynchroPatch® 384 (Nanion Technologies GmbH, Germany). K+ currents are measured with the patch-voltage-clamp technique in the whole-cell configuration at 35-37° C. Cells were held at a resting voltage of −80 mV and they were stimulated by a voltage pattern shown in FIG. 1 to activate hERG channels and conduct outward IKhERG current, at a stimulation frequency of 0.1 Hz (6 bpm) The amplitudes of IKhERG were recorded in each concentration of drug and they were compared to the vehicle control values (taken as 100%) to define fractional blocks. The concentration-response data were fitted with the following relationship: where C is the concentration, • IC50 is the concentration producing 50% block • h is the Hill coefficient. Concentration-response curves were fitted by non-linear regression analysis using EworkBook suite (ID Business Solutions Ltd, UK). Data fit was done with the 4 Parameter Logistic Model (fit=(A+(B/(1+((x/C)^D)))), where A=0 and B=100).

NLRP3 [1] = target: T2, NLRP3 (Homo sapiens, UniProt Q96P20); experiment: THP-1 cells pyroptosis assay; parameters: Seed THP-1 cells (25,000 cells/well) containing 1.0 μg/ml LPS; host or cells: THP-1 cells, LPS-primed, nigericin-stimulated; conditions: 1.0 μg/ml LPS, nigericin 5 μM, resazurin readout
T2 sequence (Q96P20 whole entry): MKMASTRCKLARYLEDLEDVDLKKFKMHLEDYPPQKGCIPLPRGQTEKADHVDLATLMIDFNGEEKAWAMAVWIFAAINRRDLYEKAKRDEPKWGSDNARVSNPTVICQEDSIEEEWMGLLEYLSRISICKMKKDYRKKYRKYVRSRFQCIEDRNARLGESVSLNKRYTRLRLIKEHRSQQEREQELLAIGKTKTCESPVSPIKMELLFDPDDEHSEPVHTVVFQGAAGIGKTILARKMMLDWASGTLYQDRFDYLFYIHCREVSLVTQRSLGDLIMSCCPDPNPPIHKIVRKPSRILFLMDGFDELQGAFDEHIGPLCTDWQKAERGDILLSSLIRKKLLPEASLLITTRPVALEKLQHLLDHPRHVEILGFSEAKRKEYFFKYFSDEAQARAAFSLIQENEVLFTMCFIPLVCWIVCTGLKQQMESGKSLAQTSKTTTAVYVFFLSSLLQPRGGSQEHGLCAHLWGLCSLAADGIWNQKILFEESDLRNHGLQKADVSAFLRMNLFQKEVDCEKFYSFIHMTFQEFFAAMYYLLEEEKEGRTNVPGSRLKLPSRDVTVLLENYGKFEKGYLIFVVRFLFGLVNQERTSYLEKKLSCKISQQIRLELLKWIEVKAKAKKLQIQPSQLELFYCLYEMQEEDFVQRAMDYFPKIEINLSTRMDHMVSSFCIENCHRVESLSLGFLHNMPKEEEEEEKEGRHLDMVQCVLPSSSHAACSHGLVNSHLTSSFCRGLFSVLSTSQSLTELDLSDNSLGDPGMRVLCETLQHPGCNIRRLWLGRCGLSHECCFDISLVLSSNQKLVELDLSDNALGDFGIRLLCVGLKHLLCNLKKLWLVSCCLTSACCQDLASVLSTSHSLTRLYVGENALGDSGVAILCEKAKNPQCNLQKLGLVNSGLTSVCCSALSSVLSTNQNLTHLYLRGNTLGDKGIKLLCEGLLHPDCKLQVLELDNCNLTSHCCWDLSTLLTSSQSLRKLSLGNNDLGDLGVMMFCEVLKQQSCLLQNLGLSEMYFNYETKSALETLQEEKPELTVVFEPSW
Method: The cells were routinely passaged and grown to confluency (˜10^6 cells/ml). On the day of the experiment, THP-1 cells were harvested and resuspended into RPMI medium (without FBS). […] To this diluted cell solution was added LPS (Sigma #L4524) to give a 1 μg/ml Final Assay Concentration (FAC). 40 μl of the final preparation was aliquoted into each well of a 96-well plate. The plate thus prepared was used for compound screening.
The following method step-by-step assay was followed for compound screening. • 1. […] Incubate for 3 hrs at 37° C., 5% CO2 • 4. Add 5 μl nigericin (Sigma #N7143) (FAC 5 μM) to all wells • 5. Incubate for 1 hr at 37° C., 5% CO2 • 6. At the end of the incubation period, spin plates at 300×g for 3 mins and remove supernatant • 7. Then add 50 μl of resazurin (Sigma #R7017) (FAC 100 μM resazurin in RPMI medium without FBS) and incubate plates for a further 1-2 hrs at 37° C. and 5% CO2 • 8. […] IC50 data is fitted to a non-linear regression equation (log inhibitor vs response-variable slope 4-parameters)

NLRP3 [2] = target: T2, NLRP3; experiment: Human whole blood IL-1β release assay; parameters: Human whole blood in Li-heparin tubes was obtained from healthy donors; from tissue; host or cells: human whole blood from healthy donors, LPS-primed, nigericin-stimulated; conditions: 1 μg/ml LPS, nigericin 10 μM, IL-1β by AlphaLisa
Method: For systemic delivery, the ability to inhibit NLRP3 when the compounds are present within the bloodstream is of great importance. For this reason, the NLRP3 inhibitory activity of a number of compounds in human whole blood was investigated in accordance with the following protocol.
Human whole blood in Li-heparin tubes was obtained from healthy donors from a volunteer donor panel. • 1. […] Incubate for 3 hrs at 37° C., 5% CO2 • 4. Add 10 μl nigericin (Sigma #N7143) (10 μM FAC) to all wells • 5. Incubate for 1 hr at 37° C., 5% CO2 • 6. At the end of the incubation period, spin plates at 300×g for 5 mins to pellet cells and remove 20 μl of supernatant and add to 96-well v-bottom plates for IL-1β analysis (note: these plates containing the supernatants can be stored at −80° C. to be analysed at a later date) • 7. IL-1β was measured according to the manufacturer protocol (Perkin Elmer-AlphaLisa IL-1 Kit AL220F-5000) • 8. IC50 data is fitted to a non-linear regression equation (log inhibitor vs response-variable slope 4-parameters)

SMILES | pIC50 (hERG channels) | pIC50 (NLRP3 [1]) | pIC50 (NLRP3 [2])
CCN1CCC[C@@H](Nc2nnc(-c3ccc(C(F)(F)F)cc3O)n(C)c2=O)C1 [Example 19, 6-[[(3R)-1-Ethyl-3-piperidyl]amino]-3-[2-hydroxy-4-(trifluoromethyl)phenyl]-4-methyl-1,2,4-triazin-5-one;2,2,2-trifluoroacetic Acid] | < 4.70 | 8.00 | 8.02
CCN1CCC[C@@H](Nc2nnc(-c3ccc4c(c3O)CCO4)n(C)c2=O)C1 [Example 2, 6-[[(3R)-1-Ethyl-3-piperidyl]amino]-3-(4-hydroxy-2,3-dihydrobenzofuran-5-yl)-4-methyl-1,2,4-triazin-5-one] | < 4.70 |  | 
CCN1CCCC(Nc2cc(C)c(-c3ccc(C(F)(F)F)cc3O)nn2)C1 (stereo not shown) [RE-A, 2-[6-[(1-ethyl-3-piperidyl)amino]-4-methyl-pyridazin-3-yl]-5-(trifluoromethyl)phenol, reference compound] | 5.92 |  | 
CCN1CCC[C@@H](Nc2nnc(-c3ccc(F)cc3O)n(C)c2=O)C1 [Example 21, 6-[[(3R)-1-Ethyl-3-piperidyl]amino]-3-(4-fluoro-2-hydroxy-phenyl)-4-methyl-1,2,4-triazin-5-one] | < 4.70 | 7.24 | 7.55
CCN1CCC[C@@H](Nc2nnc(-c3ccc(Cl)cc3O)n(C)c2=O)C1 [Example 33, 3-(4-Chloro-2-hydroxy-phenyl)-6-[[(3R)-1-ethyl-3-piperidyl]amino]-4-methyl-1,2,4-triazin-5-one] | < 4.70 |  | 
CN1CCC[C@@H](Nc2nnc(-c3ccc(OC(F)(F)F)cc3O)n(C)c2=O)C1 [Example 34, 3-[2-Hydroxy-4-(trifluoromethoxy)phenyl]-4-methyl-6-[[(3R)-1-methyl-3-piperidyl]amino]-1,2,4-triazin-5-one] |  | 7.88 | 7.45
Cn1c(-c2ccc(C(F)(F)F)cc2O)nnc(N[C@@H]2CCCN(CC3CC3)C2)c1=O [Example 5, (R)-6-((1-(Cyclopropylmethyl)piperidin-3-yl)amino)-3-(2-hydroxy-4-(trifluoromethyl)phenyl)-4-methyl-1,2,4-triazin-5(4H)-one;2,2,2-trifluoroacetic Acid] |  | 7.06 | 7.04
Cn1c(-c2ccc(C(F)(F)F)cc2O)nnc(NCc2cccc(O)c2)c1=O [Example 18, 6-[(3-Hydroxyphenyl)methylamino]-3-[2-hydroxy-4-(trifluoromethyl)phenyl]-4-methyl-1,2,4-triazin-5-one;2,2,2-trifluoroacetic Acid] |  | 8.92 | 8.09
CCN1CCC[C@@H](Nc2nnc(-c3c(C)cc(C(F)(F)F)cc3O)n(C)c2=O)C1 [Example 28, 6-[[(3R)-1-Ethyl-3-piperidyl]amino]-3-[2-hydroxy-6-methyl-4-(trifluoromethyl)phenyl]-4-methyl-1,2,4-triazin-5-one] | < 4.70 | 7.89 | 7.51
CN1C2CCC(Nc3nnc(-c4ccc(C(F)(F)F)cc4O)n(C)c3=O)C1CC2 (stereo not shown) [Example 4, 3-[2-Hydroxy-4-(trifluoromethyl)phenyl]-4-methyl-6-[(8-methyl-8-azabicyclo[3.2.1]octan-2-yl)amino]-1,2,4-triazin-5-one;2,2,2-trifluoroacetic Acid] |  | 7.02 | 6.92
CCN1CCC[C@@H](Nc2nnc(-c3ccc(OC(F)(F)F)cc3O)n(C)c2=O)C1 [Example 27, 6-[[(3R)-1-Ethyl-3-piperidyl]amino]-3-[2-hydroxy-4-(trifluoromethoxy)phenyl]-4-methyl-1,2,4-triazin-5-one] | < 4.70 | 7.92 | 7.85
CCN1CCCC(Nc2nnc(-c3ccc(C(F)(F)F)cc3O)n(C)c2=O)C1 (stereo not shown) [Example 1, 6-((1-ethylpiperidin-3-yl)amino)-3-(2-hydroxy-4-(trifluoromethyl)phenyl)-4-methyl-1,2,4-triazin-5(4H)-one] | < 4.70 | 7.36 | 7.46
Cn1c(-c2ccc(C(F)(F)F)cc2O)nnc(NC2CCCN3CCCC23)c1=O (stereo not shown) [Example 7, 6-(1,2,3,5,6,7,8,8a-Octahydroindolizin-8-ylamino)-3-[2-hydroxy-4-(trifluoromethyl)phenyl]-4-methyl-1,2,4-triazin-5-one;2,2,2-trifluoroacetic Acid] |  | 7.29 | 7.07
Cn1c(-c2ccc(C(F)(F)F)cc2O)nnc(N[C@@H]2CCCN(C3CC3)C2)c1=O [Example 10, (R)-6-((1-Cyclopropylpiperidin-3-yl)amino)-3-(2-hydroxy-4-(trifluoromethyl)phenyl)-4-methyl-1,2,4-triazin-5(4H)-one] | < 4.70 | 7.41 | 6.77
